{"source": "the supplement of paper PMC10307832", "assay_in_all_cases": "relative viability (nuclei count vs DMSO), 5 days (fraction); higher = more cells survive", "key": {"HCC-827": {"system": "HCC-827", "how_it_was_run": "(§1)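 Each reported value is a median over duplicate plates. It expresses relative viability: treated-well nuclei count divided by vehicle-well nuclei count. Lung cancer cell lines in 1536-well plates were dosed by pin tool a day after seeding, alone with one drug or with a fixed anchor-drug dose plus five library-drug doses (not always all listed) in √10 steps, and nuclei were counted after 5 days.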"}, "SW 1573": {"system": "SW 1573", "how_it_was_run": "as §1"}, "NCI-H1437": {"system": "NCI-H1437", "how_it_was_run": "as §1"}, "SK-MES-1": {"system": "SK-MES-1", "how_it_was_run": "as §1"}, "NCI-H358": {"system": "NCI-H358", "how_it_was_run": "as §1"}, "LU99A": {"system": "LU99A", "how_it_was_run": "as §1"}, "LXF-289": {"system": "LXF-289", "how_it_was_run": "as §1"}, "NCI-H1915": {"system": "NCI-H1915", "how_it_was_run": "as §1"}, "NCI-H23": {"system": "NCI-H23", "how_it_was_run": "as §1"}, "NCI-H441": {"system": "NCI-H441", "how_it_was_run": "as §1"}, "NCI-H522": {"system": "NCI-H522", "how_it_was_run": "as §1"}, "NCI-H2342": {"system": "NCI-H2342", "how_it_was_run": "as §1"}, "NCI-H322M": {"system": "NCI-H322M", "how_it_was_run": "as §1"}, "NCI-H727": {"system": "NCI-H727", "how_it_was_run": "as §1"}, "NCI-H647": {"system": "NCI-H647", "how_it_was_run": "as §1"}, "NCI-H1666": {"system": "NCI-H1666", "how_it_was_run": "as §1"}, "NCI-H2170": {"system": "NCI-H2170", "how_it_was_run": "as §1"}, "BEN": {"system": "BEN", "how_it_was_run": "as §1"}, "EPLC-272H": {"system": "EPLC-272H", "how_it_was_run": "as §1"}, "NCI-H650": {"system": "NCI-H650", "how_it_was_run": "as §1"}, "HOP-62": {"system": "HOP-62", "how_it_was_run": "as §1"}, "NCI-H2347": {"system": "NCI-H2347", "how_it_was_run": "as §1"}}, "data": [{"smiles": "Oc1nc(-c2ccc(C(F)(F)F)cc2)nc2c1CSCC2", "note": "[XAV939] + Nc1ncn([C@H]2C[C@H](O)[C@@H](CO)O2)c(=O)n1 [Decitabine] (partner 2 µM)", "values": [{"measurement": "relative viability", "setting": "HCC-827; first compound 0.08 µM", "value": 0.327}, {"measurement": "relative viability", "setting": "HCC-827; first compound 0.253 µM", "value": 0.269}, {"measurement": "relative viability", "setting": "HCC-827; first compound 0.8 µM", "value": 0.321}, {"measurement": "relative viability", "setting": "HCC-827; first compound 2.53 µM", "value": 0.254}, {"measurement": "relative viability", "setting": "SW 1573; first compound 0.08 µM", "value": 0.559}, {"measurement": "relative viability", "setting": "SW 1573; first compound 0.253 µM", "value": 0.436}, {"measurement": "relative viability", "setting": "SW 1573; first compound 0.8 µM", "value": 0.437}, {"measurement": "relative viability", "setting": "SW 1573; first compound 2.53 µM", "value": 0.453}, {"measurement": "relative viability", "setting": "NCI-H1437; first compound 0.08 µM", "value": 0.626}, {"measurement": "relative viability", "setting": "NCI-H1437; first compound 0.253 µM", "value": 0.478}, {"measurement": "relative viability", "setting": "NCI-H1437; first compound 0.8 µM", "value": 0.539}, {"measurement": "relative viability", "setting": "NCI-H1437; first compound 2.53 µM", "value": 0.431}, {"measurement": "relative viability", "setting": "SK-MES-1; first compound 0.08 µM", "value": 0.359}, {"measurement": "relative viability", "setting": "SK-MES-1; first compound 0.253 µM", "value": 0.342}, {"measurement": "relative viability", "setting": "SK-MES-1; first compound 0.8 µM", "value": 0.358}, {"measurement": "relative viability", "setting": "SK-MES-1; first compound 2.53 µM", "value": 0.381}, {"measurement": "relative viability", "setting": "NCI-H358; first compound 0.08 µM", "value": 0.219}, {"measurement": "relative viability", "setting": "NCI-H358; first compound 0.253 µM", "value": 0.207}, {"measurement": "relative viability", "setting": "NCI-H358; first compound 0.8 µM", "value": 0.235}, {"measurement": "relative viability", "setting": "NCI-H358; first compound 2.53 µM", "value": 0.215}, {"measurement": "relative viability", "setting": "LU99A; first compound 0.08 µM", "value": 0.986}, {"measurement": "relative viability", "setting": "LU99A; first compound 0.253 µM", "value": 0.725}, {"measurement": "relative viability", "setting": "LU99A; first compound 0.8 µM", "value": 0.807}, {"measurement": "relative viability", "setting": "LU99A; first compound 2.53 µM", "value": 0.921}, {"measurement": "relative viability", "setting": "LXF-289; first compound 0.08 µM", "value": 0.388}, {"measurement": "relative viability", "setting": "LXF-289; first compound 0.253 µM", "value": 0.38}, {"measurement": "relative viability", "setting": "LXF-289; first compound 0.8 µM", "value": 0.416}, {"measurement": "relative viability", "setting": "LXF-289; first compound 2.53 µM", "value": 0.345}, {"measurement": "relative viability", "setting": "NCI-H1915; first compound 0.08 µM", "value": 0.253}, {"measurement": "relative viability", "setting": "NCI-H1915; first compound 0.253 µM", "value": 0.25}, {"measurement": "relative viability", "setting": "NCI-H1915; first compound 0.8 µM", "value": 0.265}, {"measurement": "relative viability", "setting": "NCI-H1915; first compound 2.53 µM", "value": 0.268}, {"measurement": "relative viability", "setting": "NCI-H23; first compound 0.08 µM", "value": 0.312}, {"measurement": "relative viability", "setting": "NCI-H23; first compound 0.8 µM", "value": 0.32}, {"measurement": "relative viability", "setting": "NCI-H23; first compound 2.53 µM", "value": 0.273}, {"measurement": "relative viability", "setting": "NCI-H441; first compound 0.08 µM", "value": 0.25}, {"measurement": "relative viability", "setting": "NCI-H441; first compound 0.253 µM", "value": 0.253}, {"measurement": "relative viability", "setting": "NCI-H441; first compound 0.8 µM", "value": 0.232}, {"measurement": "relative viability", "setting": "NCI-H441; first compound 2.53 µM", "value": 0.251}, {"measurement": "relative viability", "setting": "NCI-H522; first compound 0.08 µM", "value": 0.629}, {"measurement": "relative viability", "setting": "NCI-H522; first compound 0.253 µM", "value": 0.576}, {"measurement": "relative viability", "setting": "NCI-H522; first compound 0.8 µM", "value": 0.723}, {"measurement": "relative viability", "setting": "NCI-H522; first compound 2.53 µM", "value": 0.607}, {"measurement": "relative viability", "setting": "NCI-H2342; first compound 0.08 µM", "value": 0.832}, {"measurement": "relative viability", "setting": "NCI-H2342; first compound 0.253 µM", "value": 0.669}, {"measurement": "relative viability", "setting": "NCI-H2342; first compound 0.8 µM", "value": 0.72}, {"measurement": "relative viability", "setting": "NCI-H2342; first compound 2.53 µM", "value": 0.427}, {"measurement": "relative viability", "setting": "NCI-H322M; first compound 0.08 µM", "value": 0.684}, {"measurement": "relative viability", "setting": "NCI-H322M; first compound 0.253 µM", "value": 0.619}, {"measurement": "relative viability", "setting": "NCI-H322M; first compound 0.8 µM", "value": 0.653}, {"measurement": "relative viability", "setting": "NCI-H322M; first compound 2.53 µM", "value": 0.566}, {"measurement": "relative viability", "setting": "NCI-H727; first compound 0.08 µM", "value": 0.805}, {"measurement": "relative viability", "setting": "NCI-H727; first compound 0.8 µM", "value": 0.934}, {"measurement": "relative viability", "setting": "NCI-H727; first compound 2.53 µM", "value": 0.653}, {"measurement": "relative viability", "setting": "NCI-H647; first compound 0.08 µM", "value": 0.393}, {"measurement": "relative viability", "setting": "NCI-H647; first compound 0.253 µM", "value": 0.26}, {"measurement": "relative viability", "setting": "NCI-H647; first compound 0.8 µM", "value": 0.283}, {"measurement": "relative viability", "setting": "NCI-H647; first compound 2.53 µM", "value": 0.279}, {"measurement": "relative viability", "setting": "NCI-H1666; first compound 0.08 µM", "value": 0.747}, {"measurement": "relative viability", "setting": "NCI-H1666; first compound 0.253 µM", "value": 0.674}, {"measurement": "relative viability", "setting": "NCI-H1666; first compound 0.8 µM", "value": 0.678}, {"measurement": "relative viability", "setting": "NCI-H1666; first compound 2.53 µM", "value": 0.531}, {"measurement": "relative viability", "setting": "NCI-H2170; first compound 0.08 µM", "value": 0.472}, {"measurement": "relative viability", "setting": "NCI-H2170; first compound 0.253 µM", "value": 0.484}, {"measurement": "relative viability", "setting": "NCI-H2170; first compound 0.8 µM", "value": 0.455}, {"measurement": "relative viability", "setting": "NCI-H2170; first compound 2.53 µM", "value": 0.385}, {"measurement": "relative viability", "setting": "BEN; first compound 0.08 µM", "value": 0.73}, {"measurement": "relative viability", "setting": "BEN; first compound 0.253 µM", "value": 0.72}, {"measurement": "relative viability", "setting": "BEN; first compound 0.8 µM", "value": 0.763}, {"measurement": "relative viability", "setting": "BEN; first compound 2.53 µM", "value": 0.597}, {"measurement": "relative viability", "setting": "EPLC-272H; first compound 0.08 µM", "value": 0.357}, {"measurement": "relative viability", "setting": "EPLC-272H; first compound 0.253 µM", "value": 0.299}, {"measurement": "relative viability", "setting": "EPLC-272H; first compound 0.8 µM", "value": 0.385}, {"measurement": "relative viability", "setting": "EPLC-272H; first compound 2.53 µM", "value": 0.332}, {"measurement": "relative viability", "setting": "NCI-H650; first compound 0.08 µM", "value": 0.286}, {"measurement": "relative viability", "setting": "NCI-H650; first compound 0.253 µM", "value": 0.305}, {"measurement": "relative viability", "setting": "NCI-H650; first compound 0.8 µM", "value": 0.33}, {"measurement": "relative viability", "setting": "NCI-H650; first compound 2.53 µM", "value": 0.325}, {"measurement": "relative viability", "setting": "HOP-62; first compound 0.08 µM", "value": 0.226}, {"measurement": "relative viability", "setting": "HOP-62; first compound 0.253 µM", "value": 0.193}, {"measurement": "relative viability", "setting": "HOP-62; first compound 0.8 µM", "value": 0.223}, {"measurement": "relative viability", "setting": "HOP-62; first compound 2.53 µM", "value": 0.157}, {"measurement": "relative viability", "setting": "NCI-H2347; first compound 0.08 µM", "value": 0.62}, {"measurement": "relative viability", "setting": "NCI-H2347; first compound 0.253 µM", "value": 0.586}, {"measurement": "relative viability", "setting": "NCI-H2347; first compound 0.8 µM", "value": 0.607}, {"measurement": "relative viability", "setting": "NCI-H2347; first compound 2.53 µM", "value": 0.517}]}]}
